pEC50, pIC50, pKi: −log10 of the molar value.
Assays:
[1] = target: T1, Kappa-type opioid receptor (Homo sapiens, UniProt P41145); test: Agonist activity at kappa opioid receptor in a [35S]GTP-gamma-S functional assay
Cytochrome P450 2D6 = Cytochrome P450 2D6 (Homo sapiens, UniProt P10635); test: Inhibitory activity against CYP2D6; type: ADME
[2] = target: Opioid receptors; delta & kappa (Homo sapiens) (UniProt P41145+P41143); test: Selectivity for kappa opioid receptor over delta opioid receptor; type: protein assay
[3] = target: T1, Kappa-type opioid receptor; test: Binding affinity to kappa opioid receptor
[4] = target: Opioid receptors; mu & kappa (Homo sapiens) (UniProt P41145+P35372); test: Selectivity for kappa opioid receptor over mu opioid receptor; type: protein assay
Mu-type opioid receptor = Mu-type opioid receptor (Homo sapiens, UniProt P35372); test: Binding affinity to mu opioid receptor
Mus musculus = test: Inhibition of acetic acid-induced writhing in mice after sc administration; type: functional
Rattus norvegicus = species on record: Rattus norvegicus; test: Antinociception in rat at 300 ug given intrapaw in late phase formalin-induced flinching assay; type: functional

Cytochrome P450 2D6, sequence (P10635 whole entry): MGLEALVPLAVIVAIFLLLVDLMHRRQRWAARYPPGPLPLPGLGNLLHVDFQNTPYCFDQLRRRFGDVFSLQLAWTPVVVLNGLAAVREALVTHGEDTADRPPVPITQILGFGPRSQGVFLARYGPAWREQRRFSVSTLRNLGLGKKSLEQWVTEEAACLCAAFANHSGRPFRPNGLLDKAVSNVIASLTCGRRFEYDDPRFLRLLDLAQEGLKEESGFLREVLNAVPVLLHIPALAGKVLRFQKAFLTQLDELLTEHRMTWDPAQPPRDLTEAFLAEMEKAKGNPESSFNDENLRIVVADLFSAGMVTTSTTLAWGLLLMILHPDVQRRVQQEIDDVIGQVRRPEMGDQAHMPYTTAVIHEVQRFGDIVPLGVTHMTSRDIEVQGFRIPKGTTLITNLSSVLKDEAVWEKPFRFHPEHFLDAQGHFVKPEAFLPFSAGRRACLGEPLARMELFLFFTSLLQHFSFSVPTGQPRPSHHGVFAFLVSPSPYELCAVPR
Opioid receptors; mu & kappa (Homo sapiens), sequence (P35372 whole entry, looked up): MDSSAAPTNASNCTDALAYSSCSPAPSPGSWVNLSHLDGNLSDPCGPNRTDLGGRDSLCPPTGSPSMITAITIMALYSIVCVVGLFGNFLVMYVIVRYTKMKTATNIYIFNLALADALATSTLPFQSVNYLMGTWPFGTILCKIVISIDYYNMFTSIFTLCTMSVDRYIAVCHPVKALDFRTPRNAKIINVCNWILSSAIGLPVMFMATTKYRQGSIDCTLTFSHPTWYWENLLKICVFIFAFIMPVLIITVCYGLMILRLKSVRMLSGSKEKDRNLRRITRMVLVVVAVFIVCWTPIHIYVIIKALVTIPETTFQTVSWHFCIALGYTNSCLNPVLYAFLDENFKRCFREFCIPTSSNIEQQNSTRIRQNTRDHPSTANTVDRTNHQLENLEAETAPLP
Opioid receptors; mu & kappa (Homo sapiens), sequence (P41145 whole entry, looked up): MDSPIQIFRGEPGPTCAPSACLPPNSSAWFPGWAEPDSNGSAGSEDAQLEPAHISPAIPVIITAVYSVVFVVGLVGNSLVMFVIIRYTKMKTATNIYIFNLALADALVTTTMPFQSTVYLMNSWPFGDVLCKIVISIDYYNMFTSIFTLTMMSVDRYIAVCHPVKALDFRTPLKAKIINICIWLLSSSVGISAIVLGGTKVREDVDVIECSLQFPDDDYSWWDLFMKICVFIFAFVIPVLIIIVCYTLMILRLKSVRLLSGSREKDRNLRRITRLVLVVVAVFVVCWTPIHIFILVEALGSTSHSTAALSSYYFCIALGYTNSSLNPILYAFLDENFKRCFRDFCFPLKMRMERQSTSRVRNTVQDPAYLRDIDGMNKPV
Opioid receptors; delta & kappa (Homo sapiens), sequence (P41143 whole entry, looked up): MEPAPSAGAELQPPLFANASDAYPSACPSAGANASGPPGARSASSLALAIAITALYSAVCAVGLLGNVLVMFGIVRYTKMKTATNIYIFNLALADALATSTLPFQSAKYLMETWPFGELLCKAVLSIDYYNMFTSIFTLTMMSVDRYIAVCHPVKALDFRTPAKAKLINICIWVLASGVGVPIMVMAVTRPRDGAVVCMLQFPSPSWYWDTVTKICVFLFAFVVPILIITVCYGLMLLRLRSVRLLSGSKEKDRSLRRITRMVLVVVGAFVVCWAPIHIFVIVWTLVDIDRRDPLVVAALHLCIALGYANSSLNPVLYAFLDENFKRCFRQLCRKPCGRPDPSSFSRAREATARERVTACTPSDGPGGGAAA
Opioid receptors; delta & kappa (Homo sapiens), sequence (P41145 whole entry, looked up): as the sequence (P41145 whole entry, looked up) above
T1 sequence (P41145 whole entry): as the sequence (P41145 whole entry, looked up) above
Mu-type opioid receptor, sequence (P35372 whole entry): as the sequence (P35372 whole entry, looked up) above

Structure (SMILES)	pEC50 [1]	pIC50 (Cytochrome P450 2D6)	Ratio [2]	pKi [3]	Ratio [4]	pKi (Mu-type opioid receptor)	ED50 (Mus musculus)	Activity (Rattus norvegicus)
CN(CC(=O)N(C)[C@H](CN1CC[C@H](O)C1)c1ccccc1)c1ccc(C#N)cc1	8.64	6.17	180	9.00	250			
CN(C(=O)CNc1ccccc1CNS(C)(=O)=O)[C@H](CN1CC[C@H](O)C1)c1ccccc1	9.28	5.82	10	9.11	85			
CN(C(=O)CNc1ccc(CNS(C)(=O)=O)cc1)[C@H](CN1CC[C@H](O)C1)c1ccccc1	7.62	5.10	119	7.80	81			
CN(C(=O)CNc1ccc(C#N)cc1)[C@H](CN1CC[C@H](O)C1)c1ccccc1	9.31	5.60	409	9.18	833			
CN(CC(=O)N(C)[C@H](CN1CC[C@H](O)C1)c1ccccc1)c1ccccc1	9.64	6.28	169	9.49	1660			
CN(C(=O)CNc1ccccc1C#N)[C@H](CN1CC[C@H](O)C1)c1ccccc1	9.38	6.29	49	9.41	667			
CN(C(=O)CNc1ccc(C(F)(F)F)cc1)[C@H](CN1CC[C@H](O)C1)c1ccccc1	9.10	6.72	256	9.41	385			
CN(C(=O)CNc1cccc(C#N)c1)[C@H](CN1CC[C@H](O)C1)c1ccccc1	9.24	5.52	66	9.30	1140			
CN(C(=O)CNc1ccc(Cl)c(Cl)c1)[C@H](CN1CC[C@H](O)C1)c1ccccc1	9.57	6.12	91	9.96	427			
CN(C(=O)CNc1cccc(CNS(C)(=O)=O)c1)[C@H](CN1CC[C@H](O)C1)c1ccccc1	8.32	5.06	38	8.41	38			
CN(C(=O)CNc1ccc([N+](=O)[O-])cc1)[C@H](CN1CC[C@H](O)C1)c1ccccc1	9.64	5.47	119	9.68	905			
CCCS(=O)(=O)Nc1ccc(NCC(=O)N(C)[C@H](CN2CC[C@H](O)C2)c2ccccc2)cc1	8.08	5.05	87	8.82	1000			
CN(C(=O)CNc1ccc(NS(C)(=O)=O)cc1)[C@H](CN1CC[C@H](O)C1)c1ccccc1	7.85		47	8.24	> 877	< 5.30		
CN(C(=O)CNc1ccccc1)[C@H](CN1CC[C@H](O)C1)c1ccccc1		5.39	512		5880		0.017 mg/kg	96.2%
CC(=O)N(CC(=O)N(C)[C@H](CN1CC[C@H](O)C1)c1ccccc1)c1ccccc1	8.13	6.52	342	8.42	> 1320	< 5.30		
